Reference: patent US9533977B2, “Oxazolidinone derivative as CETP inhibitor, its preparation method, and pharmaceutical composition comprising the same” (DONG-A ST CO., LTD., priority 2013, dated 2017)

Each compound was assayed against T1, CETP (Homo sapiens, UniProt P11597) (assay: Inhibitory activity against CETP in human plasma (Roar CETP activity kit, fluorescence)). Settings: plasma from healthy men diluted 1:10 in assay buffer, 37° C., 3 hrs, fluorescence 465/535 nm; read-out: IC50, Inhibition of CETP Activity in Human Plasma.
T1 construct: from tissue; host or cells: human plasma from healthy men
T1 sequence (P11597 18-493): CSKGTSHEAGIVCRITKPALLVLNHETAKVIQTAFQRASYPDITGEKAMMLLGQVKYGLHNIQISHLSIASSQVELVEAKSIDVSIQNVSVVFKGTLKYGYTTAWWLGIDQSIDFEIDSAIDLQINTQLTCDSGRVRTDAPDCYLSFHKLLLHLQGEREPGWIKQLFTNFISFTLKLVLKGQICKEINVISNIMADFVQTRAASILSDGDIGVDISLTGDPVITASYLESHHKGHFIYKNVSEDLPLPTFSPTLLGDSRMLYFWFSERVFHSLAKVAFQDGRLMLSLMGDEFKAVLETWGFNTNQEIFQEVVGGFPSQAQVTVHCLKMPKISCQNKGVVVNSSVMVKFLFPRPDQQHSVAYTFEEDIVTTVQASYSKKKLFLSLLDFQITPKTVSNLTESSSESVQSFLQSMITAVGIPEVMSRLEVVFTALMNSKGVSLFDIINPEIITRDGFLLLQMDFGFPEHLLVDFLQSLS
Type: biochemical
Description: A CETP activity kit (#RB-CETP) was purchased from Roar […], Inc. A donor and an acceptor (each, 4 ul), a 10× assay buffer (177 ul), and each of dilutions of test compounds in dimethylsulfoxide (DMSO, Sigma-Aldrich) (0.01 nM˜10000 nM) were added to each well of black round-bottom 96-well plates (Corning #3792). Plasma samples from healthy men were diluted in the assay buffer (1:10=plasma:assay buffer), and added to each well. The plates were sealed with a sealing film (Sigma-Aldrich, #Z369659), and incubated in a 37° C. incubator microplate shaker (#SLST-3, Seolin Bio) for 3 hrs. After removal of the sealing film, fluorescence was read on Spectra Max Gemini EM (Molecular devices) with an excitation wavelength of 465 nm and an emission wavelength of 535 nm. Measurements were calculated according to the following formula. Calculated value=(Fluorescence Intensity with both compound and plasma−Fluorescence Intensity with compound but without plasma)/(Fluorescence Intensity with plasma but without compound−Fluorescence Intensity with neither compound nor plasma)
From the calculated value, a sigmoidal curve (y=start+(end-start)x^n/k^n+x^n) was drawn using Origin Software (OriginLab Corporation, ver. 8.0724) to obtain IC50 values.

IC50	SMILES
430 nM	CCN(c1ncc(C(F)(F)F)cc1CN1C(=O)O[C@H](c2cc(C(F)(F)F)cc(C(F)(F)F)c2)[C@@H]1C)C1CCN(C(=O)OC(C)(C)C)CC1 [Example 27, t-butyl 4-{[3-({(4S,5R)-5-[3,5-bis(trifluoromethyl)phenyl]-4-methyl-2-oxo-oxazolidin-3-yl}methyl)-5-(trifluoromethyl)pyridin-2-yl](ethyl)amino}piperidine-1-carboxylate]
114 nM	CCN(c1ncc(C(F)(F)F)cc1CN1C(=O)O[C@H](c2cc(C(F)(F)F)cc(C(F)(F)F)c2)[C@@H]1C)C1CCC2(CC1)OCCO2 [Example 21, (4S,5R)-5-[3,5-bis(trifluoromethyl)phenyl]-4-methyl-3-({[2-(ethyl)(1,4-dioxaspiro[4.5]decan-8-yl)amino]-5-trifluoromethylpyridin-3-yl}methyl)-oxazolidin-2-one]
17 nM	Cc1noc(C)c1-c1cnc(N(C)C[C@H]2CC[C@H](CC(=O)O)CC2)c(CN2C(=O)OC(c3cc(C(F)(F)F)cc(C(F)(F)F)c3)[C@@H]2C)n1 (stereo partly shown) [Example 126]
23.7 nM	CCN(c1ncc(-c2ccco2)cc1CN1C(=O)O[C@H](c2cc(C(F)(F)F)cc(C(F)(F)F)c2)[C@@H]1C)C1CCOCC1 [Example 49, (4S,5R)-5-[3,5-bis(trifluoromethyl)phenyl]-4-methyl-3-({[2-(ethyl)(tetrahydro-2H-pyran-4-yl)amino]-5-(furan-2-yl)pyridin-3-yl}methyl)-oxazolidin-2-one]
2.61 nM	Cc1noc(C)c1-c1cnc(N2CCCCC2)c(CN2C(=O)O[C@@H](c3cc(C(F)(F)F)cc(C(F)(F)F)c3)[C@@H]2C)n1 [Example 98, (4S,5S)-5-[3,5-bis(trifluoromethyl)phenyl]-3-{[6-(3,5-dimethylisoxazol-4-yl)-3-(piperidin-1-yl)pyrazin-2-yl)methyl}-4-methyloxazolidin-2-one]
540 nM	CCN(c1ncc(C(F)(F)F)cc1CN1C(=O)O[C@H](c2cc(C(F)(F)F)cc(C(F)(F)F)c2)[C@@H]1C)C1CCN(C)CC1 [Example 29, (4S,5R)-5-[3,5-bis(trifluoromethyl)phenyl]-4-methyl-3-({[2-(ethyl)(1-methylpiperidin-4-yl)amino]-5-(trifluoromethyl)pyridin-3-yl}methyl)-oxazolidin-2-one]
56.2 nM	CCN(C[C@H]1CC[C@H](CC(=O)O)CC1)c1ncc(-c2cc(C)cs2)nc1CN1C(=O)OC(c2cc(C(F)(F)F)cc(C(F)(F)F)c2)[C@@H]1C (stereo partly shown) [Example 110]
4.98 nM	CCN(CC1CCC(CCO)CC1)c1ncc(N2CCCC2)nc1CN1C(=O)OC(c2cc(C(F)(F)F)cc(C(F)(F)F)c2)C1C [Example 131, trans-4-({[3-({(4S,5S)-5-[3,5-bis(trifluoromethyl)phenyl]-4-methyl-2-oxazolidin-3-yl}methyl)-5-(pyrrolidin-4-yl)pyrazin-2-yl]{[N-(ethyl)aminomethyl]cyclohexyl)}propanol]
3.88 nM	CCN(C[C@H]1CC[C@H](CC(=O)O)CC1)c1ncc(C2CC2)nc1CN1C(=O)OC(c2cc(C(F)(F)F)cc(C(F)(F)F)c2)[C@@H]1C (stereo partly shown) [Example 121]
26.9 nM	CCN(c1ncc(-c2ccccc2)cc1CN1C(=O)O[C@H](c2cc(C(F)(F)F)cc(C(F)(F)F)c2)[C@@H]1C)C1CCOCC1 [Example 45, (4S,5R)-5-[3,5-bis(trifluoromethyl)phenyl]-4-methyl-3-({[2-(ethyl)(tetrahydro-2H-pyran-4-yl)amino]-5-phenylpyridin-3-yl}methyl)-oxazolidin-2-one]
83.1 nM	Cc1noc(C)c1-c1cnc(N2CC(C)OC(C)C2)c(CN2C(=O)O[C@@H](c3cc(C(F)(F)F)cc(C(F)(F)F)c3)[C@@H]2C)n1 (stereo partly drawn) [Example 99, (4S,5S)-5-[3,5-bis(trifluoromethyl)phenyl]-3-{[6-(3,5-dimethylisoxazol-4-yl)-3-(2,6-dimethylmorpholino)pyrazin-2-yl]methyl}-4-methyloxazolidin-2-one]
48 nM	CCN(c1ncc(N2CCCC2C(F)(F)F)cc1CN1C(=O)O[C@H](c2cc(C(F)(F)F)cc(C(F)(F)F)c2)[C@@H]1C)C1CCCCC1 (stereo partly drawn) [Example 92, (4S,5R)-5-[3,5-bis(trifluoromethyl)phenyl]-4-methyl-3-({[2-(ethyl)(cyclohexyl)amino]-5-(2-(trifluoromethyl)-pyrrolidin-1-yl)pyridin-3-yl}methyl)-oxazolidin-2-one]
143 nM	CCN(c1ncc(C(F)(F)F)cc1CN1C(=O)O[C@H](c2cc(C(F)(F)F)cc(C(F)(F)F)c2)[C@@H]1C)C1CCOC1 (stereo partly drawn) [Example 2, (4S,5R)-5-[3,5-bis(trifluoromethyl)phenyl]-4-methyl-3-{(2-[ethyl(tetrahydrofuran-3-yl)amino]-5-(trifluoromethyl)pyridin-3-yl)methyl}-oxazolidin-2-one]
28 nM	CCN(c1ncc(-c2cccc(C)c2)cc1CN1C(=O)O[C@H](c2cc(C(F)(F)F)cc(C(F)(F)F)c2)[C@@H]1C)C1CCOCC1 [Example 46, (4S,5R)-5-[3,5-bis(trifluoromethyl)phenyl]-4-methyl-3-({[2-(ethyl)(tetrahydro-2H-pyran-4-yl)amino]-5-(3-methylphenyl)pyridin-3-yl}methyl)-oxazolidin-2-one]
3.8 nM	CCN(C[C@H]1CC[C@H](CC(=O)O)CC1)c1ncc(-c2cccn2C)nc1CN1C(=O)OC(c2cc(C(F)(F)F)cc(C(F)(F)F)c2)[C@@H]1C (stereo partly shown) [Example 104]
26.5 nM	CCN(c1ncc(-c2cscn2)cc1CN1C(=O)O[C@H](c2cc(C(F)(F)F)cc(C(F)(F)F)c2)[C@@H]1C)C1CCCCC1 [Example 81, (4S,5R)-5-[3,5-bis(trifluoromethyl)phenyl]-4-methyl-3-({[2-(ethyl)(cyclohexyl)amino]-5-(thiazol-4-yl)pyridin-3-yl}methyl)-oxazolidin-2-one]
37 nM	CCN(CC1CCC(CC(=O)O)CC1)c1ncc(-c2cc(C)nn2C)nc1CN1C(=O)OC(c2cc(C(F)(F)F)cc(C(F)(F)F)c2)C1C [Example 107, trans-4-({[3-({(4S,5S)-5-[3,5-bis(trifluoromethyl)phenyl]-4-methyl-2-oxazolidin-3-yl}methyl)-5-(1,3-dimethyl-1H-pyrazol-5-yl)pyrazin-2-yl]{[N-(ethyl)aminomethyl]cyclohexyl)}acetic acid]
34 nM	C[C@H]1C(c2cc(C(F)(F)F)cc(C(F)(F)F)c2)OC(=O)N1Cc1nc(C2CCCC2)cnc1N(C)C[C@H]1CC[C@H](CC(=O)O)CC1 (stereo partly shown) [Example 129]
6.7 nM	CCN(c1ncc(-c2ccc(C#N)s2)cc1CN1C(=O)O[C@@H](c2cc(C(F)(F)F)cc(C(F)(F)F)c2)[C@@H]1C)C1CCCCC1 [Example 71, 5-{5-({(4S,5S)-5-[3,5-bis(trifluoromethyl)phenyl]-4-methyl-2-oxo-oxazolidin-3-yl}methyl)-6-[(cyclohexyl)(ethyl)amino]pyridin-3-yl}-thiophene-2-carbonitrile]
24.8 nM	CCN(C[C@H]1CC[C@H](CC(=O)O)CC1)c1ncc(-c2cncc(F)c2)nc1CN1C(=O)OC(c2cc(C(F)(F)F)cc(C(F)(F)F)c2)[C@@H]1C (stereo partly shown) [Example 120]
12.7 nM	CCN(c1ncc(-c2c(C)noc2C)cc1CN1C(=O)O[C@H](c2cc(C(F)(F)F)cc(C(F)(F)F)c2)[C@@H]1C)C1CCOCC1 [Example 51]
11.7 nM	CCN(C[C@H]1CC[C@H](CC(=O)O)CC1)c1ncc(-c2ccc(C#N)cc2)nc1CN1C(=O)OC(c2cc(C(F)(F)F)cc(C(F)(F)F)c2)[C@@H]1C (stereo partly shown) [Example 117]
23.9 nM	C[C@H]1C(c2cc(C(F)(F)F)cc(C(F)(F)F)c2)OC(=O)N1Cc1nc(C2CCC2)cnc1N(C)C[C@H]1CC[C@H](CC(=O)O)CC1 (stereo partly shown) [Example 128]
10 nM	CCN(c1ncc(C(F)(F)F)cc1CN1C(=O)O[C@H](c2cc(C(F)(F)F)cc(C(F)(F)F)c2)[C@@H]1C)C1CCC(=O)CC1 [Example 22, (4S,5R)-5-[3,5-bis(trifluoromethyl)phenyl]-4-methyl-3-({[2-(ethyl)(4-oxocyclohexyl)amino]-5-(trifluoromethyl)pyridin-3-yl}methyl)-oxazolidin-2-one]
100 nM	CCN(c1ncc(C(F)(F)F)cc1CN1C(=O)O[C@H](c2cc(C(F)(F)F)cc(C(F)(F)F)c2)[C@@H]1C)C1CC[S+]([O-])CC1 (stereo partly drawn) [Example 26, (4S,5R)-5-[3,5-bis(trifluoromethyl)phenyl]-4-methyl-3-({[2-(ethyl)(1-oxidotetrahydro-2H-thiopyran-4-yl)amino]-5-(trifluoromethyl)pyridin-3-yl}methyl)-oxazolidin-2-one]
